IC50 data for eight compounds are collected here from patent publication US20260167623A1 (NIKANG THERAPEUTICS, INC., priority 2022, published 2026).

Each structure is given as a SMILES string. Where only a bound is given, the exact number is not on record here.

This assay deals with T1, CDK2 (Homo sapiens, UniProt P24941).
T1 construct: High-Throughput Measurement of Cellular Endogenous CDK2; endogenous in cells; host or cells: OVCAR3
Put plainly: Inhibition of CDK2: phospho-Rb (S807/811) HTRF measurement in OVCAR3 cells, 24 h. The class given is cell-based. To be noted: 24 h compound treatment, read-out: pRB_OVCAR3_24h. In a few lines: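 IC50 came from a four-parameter fit of DMSO-normalized TR-FRET ratios (665/620 nm) reporting phospho-Rb S807/811. Lysates were taken from OVCAR3 cultures treated 24 h with compound (0.3 to 10,000 nM) and incubated 4 h at room temperature with the antibody pair.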
Background: TR-FRET usually uses a lanthanide donor and a delayed reading to cut background.
For `Cn1nc(N2CCC(=O)NC2=O)c2cccc(C3CCN(CC4CCN(c5cccc(S(=O)(=O)N6CCC(Nc7ncc(C(F)(F)F)cn7)CC6)c5)CC4)CC3)c21` [Example 145, 1-(1-methyl-7-(1-((1-(3-((4-((5-(trifluoro-methyl)pyrimidin-2-yl)amino)piperidin-1-yl)sulfonyl)phenyl)piperidin-4-yl)methyl)-piperidin-4-yl)-1H-indazol-3-yl)dihydropyrimidine-2,4(1H,3H)-dione], the IC50 was 100 to 500 nM.

In the case of `Cn1nc(N2CCC(=O)NC2=O)c2ccc(C3CCN(Cc4cccc(S(=O)(=O)N5CC6(CC(Nc7ncc(C(F)(F)F)cn7)C6)C5)c4)CC3)cc21` [Example 146, 1-(1-methyl-6-(1-(3-((6-((5-(trifluoro-methyl)pyrimidin-2-yl)amino)-2-azaspiro[3.3]heptan-2-yl)sulfonyl)benzyl)-piperidin-4-yl)-1H-indazol-3-yl)dihydropyrimidine-2,4(1H,3H)-dione], the IC50 is over 2500 nM.

`Cn1nc(N2CCC(=O)NC2=O)c2ccc(C3CCN(Cc4cccc(S(=O)(=O)N5CC(Nc6ncc(C(F)(F)F)cn6)C5)c4)CC3)cc21` [Example 154, 1-(1-methyl-6-(1-(3-((3-((5-(trifluoromethyl)pyrimidin-2-yl)amino)azetidin-1-yl)sulfonyl)benzyl)piperidin-4-yl)-1H-indazol-3-yl)dihydropyrimidine-2,4(1H,3H)-dione]: the IC50 is over 2500 nM.

`Cn1cc(-c2cnc(NC3CCN(S(=O)(=O)c4cccc(N5CCC(CN6CCC(c7ccc8c(N9CCC(=O)NC9=O)nn(C)c8c7)CC6)CC5)c4)CC3)nc2)cn1` [Example 155, 1-(1-methyl-6-(1-((1-(3-((4-((5-(1-methyl-1H-pyrazol-4-yl)pyrimidin-2-yl)amino)piperidin-1-yl)sulfonyl)phenyl)piperidin-4-yl)methyl)piperidin-4-yl)-1H-indazol-3-yl)dihydropyrimidine-2,4(1H,3H)-dione]: the IC50 was over 2500 nM.

For the compound `Cn1nc(N2CCC(=O)NC2=O)c2ccc(C3CCN(CC4CCC(c5cccc(S(=O)(=O)N6CCC(Nc7ncc(Cl)cn7)CC6)c5)CC4)CC3)cc21` (centres unmarked) [Example 156, 1-(6-(1-((4-(3-((4-((5-chloropyrimidin-2-yl)amino)piperidin-1-yl)sulfonyl)phenyl)cyclohexyl)methyl)piperidin-4-yl)-1-methyl-1H-indazol-3-yl)dihydropyrimidine-2,4(1H,3H)-dione 2,2,2-trifluoroacetate], the IC50 was 100 to 500 nM.

As to `Cn1nc(N2CCC(=O)NC2=O)c2ccc(C3CCN(Cc4ccc(C5CCCN(S(=O)(=O)N6CCC(Nc7ncc(Cl)cn7)CC6)C5)cc4)CC3)cc21` (centres unmarked) [Example 157, 1-(6-(1-(4-(1-((4-((5-chloropyrimidin-2-yl)amino)piperidin-1-yl)sulfonyl)piperidin-3-yl)benzyl)piperidin-4-yl)-1-methyl-1H-indazol-3-yl)dihydropyrimidine-2,4(1H,3H)-dione], the IC50 fell in the range of 500 to 2500 nM.

For the compound `Cn1nc(N2CCC(=O)NC2=O)c2ccc(C3CCN(CC4CCN(c5ccc(S(=O)(=O)N6CCC(Nc7ncc(Cl)cn7)CC6)cc5)CC4)CC3)cc21` [Example 158, 1-(6-(1-((1-(4-((4-((5-chloropyrimidin-2-yl)amino)piperidin-1-yl)sulfonyl)phenyl)piperidin-4-yl)methyl)piperidin-4-yl)-1-methyl-1H-indazol-3-yl)dihydropyrimidine-2,4(1H,3H)-dione], the IC50 was 500 to 2500 nM.

On to `Cn1nc(N2CCC(=O)NC2=O)c2ccc(N3CCN(CC4CCN(c5cccc(S(=O)(=O)N6CCC(Nc7ncc(Cl)cn7)CC6)c5)CC4)CC3(C)C)cc21` [Example 159, 1-(6-(4-((1-(3-((4-((5-chloropyrimidin-2-yl)amino)piperidin-1-yl)sulfonyl)phenyl)piperidin-4-yl)methyl)-2,2-dimethylpiperazin-1-yl)-1-methyl-1H-indazol-3-yl)dihydropyrimidine-2,4(1H,3H)-dione], for which the IC50 lay within 100 to 500 nM.
